Reference: patent US20210253651A1, “METHOD FOR PRODUCING ORGANIC COMPOUND-ENCAPSULATING FERRITIN” (Ajinomoto Co., Inc., priority 2018, published 2021)
Counter-ions that a name gives are not always drawn.

Legend:
FTH ferritin = target: T1, FTH ferritin (Homo sapiens, UniProt P02794); test: disassembly-reassembly process incorporation of DOX into FTH ferritin; assay type: physicochemical; conditions: standing 15 minutes, DOX 0.2 mg/L
T1 construct: made in house; host or cells: Escherichia coli BL21 (DE3), plasmid pET20-FTH
T1 sequence (P02794 whole entry): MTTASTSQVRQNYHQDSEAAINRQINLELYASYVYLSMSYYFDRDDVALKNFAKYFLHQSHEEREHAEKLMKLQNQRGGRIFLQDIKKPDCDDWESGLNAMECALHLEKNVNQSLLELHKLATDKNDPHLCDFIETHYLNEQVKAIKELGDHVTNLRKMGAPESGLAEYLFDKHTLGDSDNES
Protocol: Then, 10 μL of 1M Tris-HCl buffer (pH 9.0) was added for neutralization, and the resulting solution was left to stand for 5 to 120 minutes at room temperature. After the standing, 0.5 mL of water was added to the resulting solution. After the resulting solution was centrifuged (at 15,000 rpm for one minute), the supernatant was injected into the desalting column PD-10 (Sephadex G-25 filled product, GE Healthcare Inc.) equilibrated with 10 mM Tris-HCl buffer (pH 8) to separate the protein from a reagent that was not encapsulated. Whole amount (3.5 mL) of the resulting solution was concentrated to 0.1 mL by centrifugal ultrafiltration using Vivaspin 20-100K (GE Healthcare Inc.), and then the absorbances at 280 nm and 480 nm were measured using spectrophotometer (DU-800, Beckman Coulter Inc.).

FTH-BC-TBP ferritin = test: one-step incorporation of DOX into mutant ferritin FTH-BC-TBP; assay type: physicochemical, human; conditions: pH 8, 50° C., 60 minutes, DOX 0.3 mg/L
Protocol: Total synthesis was carried out for a DNA encoding a human-derived ferritin H chain (FTH-BC-TBP) monomer in which a titanium recognizing peptide (minTBP1: RKLPDA (SEQ ID NO: 7)) was inserted for fusion at a flexible linker region between second and third α-helices counted from an N-terminus of a ferritin monomer comprising six α-helices. PCR was carried out using the synthesized DNA as a template as well as the following primers: 5′-[…]-3′ (SEQ ID NO: 8) and 5′-[…]-3′ (SEQ ID NO: 9). PCR was carried out using pET20 (Merck KGaA) as a template as well as the following primers: 5′-[…]-3′ (SEQ ID NO: 10) and 5′-[…]-3′ (SEQ ID NO: 11). […]
DOX was mixed with 1 mL of 50 mM Tris-HCl buffer (pH 8) that contains each mutate ferritin at a final concentration of 1 mg/mL, to achieve a final concentration of 0.3 mg/L, and then the resulting solutions were left to stand at 50° C. for 60 minutes. […] The concentration of contained protein was determined using the protein assay CBB solution (Nacalai Tesque, Inc.) as well as bovine albumin as a standard. The DOX concentration was determined based on analysis of the absorbance at 480 nm.

COc1cccc2c1C(=O)c1c(O)c3c(c(O)c1C2=O)C[C@@](O)(C(=O)CO)C[C@@H]3OC1CC(N)C(O)C(C)O1 (some centres unmarked) [DOX, Doxorubicin hydrochloride]
highest incorporation efficiency of the reagent (FTH ferritin): 2 % (wt) | incorporation efficiency of the reagent (FTH-BC-TBP ferritin): 6.5 % (wt)
